Experimental data reported in US10087185B2 (Janssen Pharmaceutica NV, priority 2016, dated 2018).

Biological target: TARP γ8 dependent AMPA receptor (GRIA1o-CACNG8 fusion construct) (Homo sapiens (Human), UniProt P42261+Q8WXS5)
Experiment: Calcium flux assay (FLIPR), inhibition of glutamate response of GluA1o-γ8 channel
Format: cell-based
Settings: HEK293 cells stably expressing GRIA1o-CACNG8 fusion; calcium flux after 15 μM glutamate; negative log of the IC50 in molar
From the text: This assay was used to test compounds for their ability to inhibit TARP γ8 dependent AMPA receptor activity. The AMPA receptor is a non-selective cation channel activated by glutamate. […] But, this desensitization is incomplete, and a substantial steady-state current remains in the sustained presence of glutamate (Cho et al. (2007). “Two families of TARP isoforms that have distinct effects on the kinetic properties of AMPA receptors and synaptic currents.” Neuron 55(6): 890-904).
An in vitro assay was used to determine the potency of test compounds as inhibitors of the glutamate response of the channel formed by GluA10-γ8. To ensure a 1:1 stoichiometry of GluA1o and γ8 subunits in the expressed channel, a fusion of the cDNAs for GRIA1o and CACNG8 was used. Following Shi et al (2009) “The stoichiometry of AMPA receptors and TARPs varies by neuronal cell type.” Neuron 62(5): 633-640), the C-terminus of the cDNA for GRIA1o was fused to the N-terminus of the cDNA for γ8. The linker sequence was […]. Channels expressed with this construct appear to have similar properties to channels formed by co-expression of GRIA1o with an excess of CACNG8 (Shi et al. 2009). A clonal cell line in HEK293 cells stably expressing this construct, with a geneticin selection marker, was generated for use in this assay.
Cell expressing the GRIA1o-CACNG8 fusion construct were grown in a monolayer in 96- or 384-well microtiter plates. They were washed with assay buffer (135 mM NaCl, 4 mM KCl, 3 mM CaCl2, 1 mM MgCl2, 5 mM glucose, 10 mM HEPES, pH 7.4, 300 mOs) using a Biotek EL405 plate washer. The cells were then loaded with a calcium-sensitive dye (Calcium-5 or Calcium-6, Molecular Devices) and the test compounds at a range of concentrations. Calcium flux following the addition of 15 μM glutamate was monitored using a Molecular Devices FLIPR Tetra.
The fluorescence in each well was normalized to the fluorescence of negative and positive control wells. The negative control wells had no added compounds, and the positive control wells had been incubated with 10 μM CP465022 (a non-subtype-selective AMPA receptor antagonist) (Lazzaro et al. (2002). “Functional characterization of CP-465,022, a selective, noncompetitive AMPA receptor antagonist.” Neuropharmacology 42(2): 143-153). The responses to glutamate as functions of the test compound concentrations were fitted to a four-parameter logistic function. The fitted parameter corresponding to the midpoint was taken to be the potency of inhibition of the compound. The data in Table 4 below illustrates the observed potency for the compounds described herein. pIC50 refers to the negative log of the IC50 in molar.

TARP γ8 dependent AMPA receptor (GRIA1o-CACNG8 fusion construct), sequence (P42261 other isoform, or with tags, fused parts or gaps): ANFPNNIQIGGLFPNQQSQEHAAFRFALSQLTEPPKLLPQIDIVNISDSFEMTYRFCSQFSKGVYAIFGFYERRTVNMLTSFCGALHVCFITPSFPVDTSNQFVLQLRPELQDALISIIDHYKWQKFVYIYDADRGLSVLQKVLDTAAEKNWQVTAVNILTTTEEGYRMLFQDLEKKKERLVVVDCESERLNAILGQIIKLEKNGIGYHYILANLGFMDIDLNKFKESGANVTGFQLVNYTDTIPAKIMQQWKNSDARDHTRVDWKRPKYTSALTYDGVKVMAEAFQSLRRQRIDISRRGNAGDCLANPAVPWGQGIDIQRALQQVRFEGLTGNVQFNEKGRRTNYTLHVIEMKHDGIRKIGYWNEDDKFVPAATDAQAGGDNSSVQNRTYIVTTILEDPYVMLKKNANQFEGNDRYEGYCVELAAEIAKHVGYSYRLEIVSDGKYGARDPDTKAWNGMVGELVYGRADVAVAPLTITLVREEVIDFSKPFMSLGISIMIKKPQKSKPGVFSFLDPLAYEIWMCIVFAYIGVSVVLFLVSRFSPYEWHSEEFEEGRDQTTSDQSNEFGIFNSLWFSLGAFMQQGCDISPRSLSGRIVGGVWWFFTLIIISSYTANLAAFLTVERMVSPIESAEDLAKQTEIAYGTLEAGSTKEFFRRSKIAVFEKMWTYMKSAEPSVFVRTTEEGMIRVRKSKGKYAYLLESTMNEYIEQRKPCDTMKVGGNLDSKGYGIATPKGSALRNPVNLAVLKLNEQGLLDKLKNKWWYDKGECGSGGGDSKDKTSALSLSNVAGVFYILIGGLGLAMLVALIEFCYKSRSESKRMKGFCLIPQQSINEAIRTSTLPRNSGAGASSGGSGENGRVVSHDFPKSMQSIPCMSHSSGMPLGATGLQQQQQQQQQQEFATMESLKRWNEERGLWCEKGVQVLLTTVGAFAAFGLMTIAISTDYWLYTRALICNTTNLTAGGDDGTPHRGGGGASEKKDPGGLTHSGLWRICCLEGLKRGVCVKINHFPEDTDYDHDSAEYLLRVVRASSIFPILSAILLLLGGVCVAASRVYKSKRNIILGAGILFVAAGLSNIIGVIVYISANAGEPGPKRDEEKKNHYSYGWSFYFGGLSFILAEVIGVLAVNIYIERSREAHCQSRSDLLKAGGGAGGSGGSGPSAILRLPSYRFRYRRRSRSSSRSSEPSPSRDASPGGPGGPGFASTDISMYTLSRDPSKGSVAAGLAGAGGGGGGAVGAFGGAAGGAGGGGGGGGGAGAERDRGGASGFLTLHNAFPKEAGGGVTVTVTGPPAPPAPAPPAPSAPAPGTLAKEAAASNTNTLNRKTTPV

SMILES | IC50 [nM] | pIC50
Cc1nc2ccc(C(F)(F)F)c(-c3cc(Cl)c4c(c3)CC(=O)N4)n2n1 [Example 23, 7-Chloro-5-(2-methyl-6-(trifluoromethyl)-[1,2,4]triazolo[1,5-a]pyridin-5-yl)indolin-2-one] | 10 | 
Cc1cc(-c2c(C(F)(F)F)cc(C)c3nc(C(F)F)nn23)cc2cn[nH]c12 [Example 86, 2-(Difluoromethyl)-8-methyl-5-(7-methyl-1H-indazol-5-yl)-6-(trifluoromethyl)-[1,2,4]triazolo[1,5-a]pyridine] |  | 9.4
Cc1cc(C(F)(F)F)c(-c2cc(C#N)c3c(c2)CC(=O)N3)n2nc(C(F)(F)F)nc12 [Example 108, 5-(8-Methyl-2,6-bis(trifluoromethyl)-[1,2,4]triazolo[1,5-a]pyridin-5-yl)-2-oxoindoline-7-carbonitrile] | 3.98 | 
CCCc1nc2c(C)cc(C(F)(F)F)c(-c3cc(C)c4[nH]ncc4c3)n2n1 [Example 84, 8-Methyl-5-(7-methyl-1H-indazol-5-yl)-2-propyl-6-(trifluoromethyl)-[1,2,4]triazolo[1,5-a]pyridine] | 1 | 
CCc1nc2c(F)cc(C(F)(F)F)c(-c3cc(Cl)c4c(c3)CC(=O)N4)n2n1 [Example 32, 7-Chloro-5-[2-ethyl-8-fluoro-6-(trifluoromethyl)-[1,2,4]triazolo[1,5-a]pyridin-5-yl]indolin-2-one] | 2 | 
Cc1cc(-c2c(C(F)(F)F)ccc3nc(C(F)(F)F)nn23)cc2c1NC(=O)C2 [Example 4, 5-(2,6-Bis(trifluoromethyl)-[1,2,4]triazolo[1,5-a]pyridin-5-yl)-7-methylindolin-2-one] | 0.501 | 
COc1ccc2nc(C(F)F)nn2c1-c1cc(C(F)(F)F)c2[nH]ncc2c1 [Example 15, 2-(Difluoromethyl)-6-methoxy-5-(7-(trifluoromethyl)-1H-indazol-5-yl)-[1,2,4]triazolo[1,5-a]pyridine] | 2 | 
Cc1cc(-c2c(-c3ccncc3)ccc3nc(C(F)(F)F)nn23)cc2cn[nH]c12 [Example 59, 5-(7-Methyl-1H-indazol-5-yl)-6-(pyridin-4-yl)-2-(trifluoromethyl)-[1,2,4]triazolo[1,5-a]pyridine] | 6.31 | 
CCOc1nc2c(C)cc(C(F)(F)F)c(-c3cc(Cl)c4[nH]ncc4c3)n2n1 [Example 117, 5-(7-Chloro-1H-indazol-5-yl)-2-ethoxy-8-methyl-6-(trifluoromethyl)-[1,2,4]triazolo[1,5-a]pyridine] | 2.51 | 
Cc1cc(-c2c(C(F)F)ccc3nc(C4CC4)nn23)cc2cn[nH]c12 [Example 49, 2-Cyclopropyl-6-(difluoromethyl)-5-(7-methyl-1H-indazol-5-yl)-[1,2,4]triazolo[1,5-a]pyridine] | 0.794 | 
CCc1nc2c(F)cc(C(F)(F)F)c(-c3cc(Cl)c4[nH]ncc4c3)n2n1 [Example 31, 5-(7-Chloro-1H-indazol-5-yl)-2-ethyl-8-fluoro-6-(trifluoromethyl)-[1,2,4]triazolo[1,5-a]pyridine] | 1.26 | 
CCc1ccc2nc(C(F)(F)F)nn2c1-c1cc(C)c2[nH]ncc2c1 [Example 52, 6-Ethyl-5-(7-methyl-1H-indazol-5-yl)-2-(trifluoromethyl)-[1,2,4]triazolo[1,5-a]pyridine] | 0.501 | 
CCc1nc2ccc(C(F)(F)F)c(-c3cc(Cl)c4[nH]ncc4c3)n2n1 [Example 25, 5-(7-Chloro-1H-indazol-5-yl)-2-ethyl-6-(trifluoromethyl)-[1,2,4]triazolo[1,5-a]pyridine] | 0.398 | 
Cc1nc2ccc(-c3ccc(F)cc3)c(-c3cc(C)c4[nH]ncc4c3)n2n1 [Example 60, 6-(4-Fluorophenyl)-2-methyl-5-(7-methyl-1H-indazol-5-yl)-[1,2,4]triazolo[1,5-a]pyridine] | 1.26 | 
CCc1nc2c(CC)cc(C(F)(F)F)c(-c3cc(Cl)c4[nH]ncc4c3)n2n1 [Example 89, 5-(7-Chloro-1H-indazol-5-yl)-2,8-diethyl-6-(trifluoromethyl)-[1,2,4]triazolo[1,5-a]pyridine] | 0.794 | 
Cc1cc(-c2c(C(F)F)cc(C)c3nc(C4CC4)nn23)cc2cn[nH]c12 [Example 114, 2-Cyclopropyl-6-(difluoromethyl)-8-methyl-5-(7-methyl-1H-indazol-5-yl)-[1,2,4]triazolo[1,5-a]pyridine] | 0.398 | 
CCc1nc2ccc(C(F)F)c(-c3cc(C)c4[nH]ncc4c3)n2n1 [Example 45, 6-(Difluoromethyl)-2-ethyl-5-(7-methyl-1H-indazol-5-yl)-[1,2,4]triazolo[1,5-a]pyridine] | 1.26 | 
O=C1Cc2cc(-c3c(C(F)(F)F)ccc4nc(C5CC5)nn34)cc(Cl)c2N1 [Example 40, 7-Chloro-5-(2-cyclopropyl-6-(trifluoromethyl)-[1,2,4]triazolo[1,5-a]pyridin-5-yl)indolin-2-one] | 0.398 | 

The remaining lines, values ahead:

IC50 [nM] | pIC50 | SMILES
0.158 |  | FC(F)c1nc2ccc(C(F)(F)F)c(-c3cc(C(F)(F)F)c4[nH]ncc4c3)n2n1 [Example 11, 2-(Difluoromethyl)-6-(trifluoromethyl)-5-(7-(trifluoromethyl)-1H-indazol-5-yl)-[1,2,4]triazolo[1,5-a]pyridine]
0.2 |  | Cc1cc(C(F)(F)F)c(-c2cc(Cl)c3[nH]ncc3c2)n2nc(C(F)(F)F)nc12 [Example 6, 5-(7-Chloro-1H-indazol-5-yl)-8-methyl-2,6-bis(trifluoromethyl)-[1,2,4]triazolo[1,5-a]pyridine]
0.251 |  | O=C1Cc2cc(-c3c(C(F)F)ccc4nc(C(F)(F)F)nn34)cc(Cl)c2N1 [Example 18, 7-Chloro-5-(6-(difluoromethyl)-2-(trifluoromethyl)-[1,2,4]triazolo[1,5-a]pyridin-5-yl)indolin-2-one]
0.0398 |  | Cc1cc(-c2c(-c3ccc(F)cc3)ccc3nc(C(F)(F)F)nn23)cc2cn[nH]c12 [Example 55, 6-(4-Fluorophenyl)-5-(7-methyl-1H-indazol-5-yl)-2-(trifluoromethyl)-[1,2,4]triazolo[1,5-a]pyridine]
0.158 |  | CCc1cc(-c2c(C(F)(F)F)cc(C)c3nc(C(F)(F)F)nn23)cc2c1NC(=O)C2 [Example 104, 7-Ethyl-5-(8-methyl-2,6-bis(trifluoromethyl)-[1,2,4]triazolo[1,5-a]pyridin-5-yl)indolin-2-one]
0.126 |  | Cc1cc(-c2c(-c3ccc(F)cc3)ccc3nc(C4CC4)nn23)cc2cn[nH]c12 [Example 62, 2-Cyclopropyl-6-(4-fluorophenyl)-5-(7-methyl-1H-indazol-5-yl)-[1,2,4]triazolo[1,5-a]pyridine]
0.398 |  | CCCc1nc2c(Cl)cc(C(F)(F)F)c(-c3cc(Cl)c4[nH]ncc4c3)n2n1 [Example 96, 8-Chloro-5-(7-chloro-1H-indazol-5-yl)-2-propyl-6-(trifluoromethyl)-[1,2,4]triazolo[1,5-a]pyridine]
0.0158 |  | Cc1cc(-c2c(C(F)(F)F)ccc3cc(C(F)(F)F)nn23)cc2c1NC(=O)C2 [Example 65, 5-(2,6-Bis(trifluoromethyl)pyrazolo[1,5-a]pyridin-7-yl)-7-methylindolin-2-one]
0.0794 |  | FC(F)(F)c1nc2ccc(C(F)(F)F)c(-c3cc(Cl)c4[nH]ncc4c3)n2n1 [Example 1, 5-(7-Chloro-1H-indazol-5-yl)-2,6-bis(trifluoromethyl)-[1,2,4]triazolo[1,5-a]pyridine]
0.0251 |  | Cc1cc(-c2c(C(F)F)ccc3cc(C(F)(F)F)nn23)cc2cn[nH]c12 [Example 121, 6-(Difluoromethyl)-7-(7-methyl-1H-indazol-5-yl)-2-(trifluoromethyl)pyrazolo[1,5-a]pyridine]
0.0126 |  | O=C1Cc2cc(-c3c(C(F)(F)F)ccc4cc(C(F)(F)F)nn34)cc(Cl)c2N1 [Example 66, 5-(2,6-Bis(trifluoromethyl)pyrazolo[1,5-a]pyridin-7-yl)-7-chloroindolin-2-one]
0.1 |  | Cc1cc(C(F)F)c(-c2cc(Cl)c3[nH]ncc3c2)n2nc(C3CC3)nc12 [Example 112, 5-(7-Chloro-1H-indazol-5-yl)-2-cyclopropyl-6-(difluoromethyl)-8-methyl-[1,2,4]triazolo[1,5-a]pyridine]
0.2 |  | CCc1nc2ccc(-c3ccc(F)cc3)c(-c3cc(C)c4[nH]ncc4c3)n2n1 [Example 61, 2-Ethyl-6-(4-fluorophenyl)-5-(7-methyl-1H-indazol-5-yl)-[1,2,4]triazolo[1,5-a]pyridine]
